In the test the target is CDK2/Cyclin E1 (Homo sapiens (Human), UniProt P24941). The test is described as follows: CDK2/Cyclin E1 HTRF enzyme activity assay. It counts as biochemical. The following applies: 1 mM ATP. The protocol: CDK2/Cyclin E1 enzyme activity assays utilize full-length human CDK2 co-expressed as N-terminal GST-tagged protein with FLAG-Cyclin E1 in a baculovirus expression system (Carna Product Number 04-165). Assays are conducted in white 384-well polystyrene plates in a final reaction volume of 8 μL. CDK2/Cyclin E1 (0.25 nM) is incubated with compounds (40 nL serially diluted in DMSO) in the presence of ATP (50 μM or 1 mM) and 50 nM ULight™-labeled eIF4E-binding protein 1 (THR37/46) peptide (PerkinElmer) in assay buffer (containing 50 mM HEPES pH 7.5, 1 mM EGTA, 10 mM MgCl2, 2 mM DTT, 0.05 mg/ml BSA, and 0.01% Tween 20) for 60 minutes at room temperature. The reactions are stopped by the addition of EDTA and Europium-labeled anti-phospho-4E-BP1 antibody (PerkinElmer), for a final concentration of 15 mM and 1.5 nM, respectively. HTRF signals are read after 1 hour at room temperature on a PHERAstar FS plate reader (BMG Labtech). Data is analyzed with IDBS XLFit and GraphPad Prism 5.0 software using a three or four parameter dose response curve to determine IC50 for each compound.
(In TR-FRET formats the signal depends on donor and acceptor labels being close together.)
For orientation: IC50 means the concentration needed to halve the response being measured. As for `CCS(=O)(=O)N1CCC(Nc2ncc3c(n2)-c2c(nc(C)n2C)CC3)CC1` [Example 1, N-(1-(Ethylsulfonyl)piperidin-4-yl)-1,2-dimethyl-4,5-dihydro-1H-imidazo[4,5-h]quinazolin-8-amine], the IC50 is not above 50 nM.

For the compound `Cc1nc2c(n1C)-c1nc(NC3CCN(S(=O)(=O)C4CC4)CC3)ncc1CC2` [Example 2, N-(1-(Cyclopropylsulfonyl)piperidin-4-yl)-1,2-dimethyl-4,5-dihydro-1H-imidazo[4,5-h]quinazolin-8-amine], the IC50 is not above 50 nM.

On to `Cc1nc2c(n1C)-c1nc(NC3CCN(S(=O)(=O)c4cnn(C)c4)CC3)ncc1CC2` [Example 3, 1,2-Dimethyl-N-(1-((1-methyl-1H-pyrazol-4-yl)sulfonyl)piperidin-4-yl)-4,5-dihydro-1H-imidazo[4,5-h]quinazolin-8-amine], for which the IC50 is not above 50 nM.

The compound `Cc1nc2c(n1C)-c1nc(NC3CCN(S(=O)(=O)c4cn[nH]c4)CC3)ncc1CC2` [Example 4, N-(1-((1H-Pyrazol-4-yl)sulfonyl)piperidin-4-yl)-1,2-dimethyl-4,5-dihydro-1H-imidazo[4,5-h]quinazolin-8-amine] registered an IC50 not above 50 nM.

`Cc1nc2c(n1C)-c1nc(NC3CCN(S(=O)(=O)c4cccc(C#N)c4)CC3)ncc1CC2` [Example 5, 3-((4-((1,2-Dimethyl-4,5-dihydro-1H-imidazo[4,5-h]quinazolin-8-yl)amino)piperidin-1-yl)sulfonyl)benzonitrile] came in with an IC50 not above 50 nM.

With `Cc1nc(S(=O)(=O)N2CCC(Nc3ncc4c(n3)-c3c(nc(C)n3C)CC4)CC2)cn1C` [Example 6, N-(1-((1,2-Dimethyl-1H-imidazol-4-yl)sulfonyl)piperidin-4-yl)-1,2-dimethyl-4,5-dihydro-1H-imidazo[4,5-h]quinazolin-8-amine], the IC50 is not above 50 nM.

Compound `Cc1nc2c([nH]1)-c1nc(NC3CCN(S(C)(=O)=O)CC3)ncc1CC2` [Example 7, 2-Methyl-N-(1-(methylsulfonyl)piperidin-4-yl)-4,5-dihydro-1H-imidazo[4,5-h]quinazolin-8-amine] had an IC50 of 50 to 200 nM.

Compound `Cc1nc2c(n1Cc1ccccc1)-c1nc(NC3CCN(S(C)(=O)=O)CC3)ncc1CC2` [Example 8, 1-Benzyl-2-methyl-N-(1-(methylsulfonyl)piperidin-4-yl)-4,5-dihydro-1H-imidazo[4,5-h]quinazolin-8-amine] yielded an IC50 not above 50 nM.

Regarding `Cn1cc2c(n1)CCc1cnc(NC3CCN(S(C)(=O)=O)CC3)nc1-2` [Example 9, 8-Methyl-N-(1-(methylsulfonyl)piperidin-4-yl)-6,8-dihydro-5H-pyrazolo[3,4-h]quinazolin-2-amine], the IC50 is 50 to 200 nM.

For the compound `Cn1cc2c(n1)COc1cnc(NC3CCN(S(C)(=O)=O)CC3)nc1-2` [Example 10, 8-Methyl-N-(1-(methylsulfonyl)piperidin-4-yl)-6,8-dihydropyrazolo[4′,3′:4,5]pyrano[3,2-d]pyrimidin-2-amine], the IC50 was in the range of 200 to 500 nM.

On to `Cc1c2c(nn1-c1c(F)cccc1F)CCc1cnc(NC3CCN(S(C)(=O)=O)CC3)nc1-2` [Example 11, 8-(2,6-Difluorophenyl)-9-methyl-N-(1-(methylsulfonyl)piperidin-4-yl)-6,8-dihydro-5H-pyrazolo[3,4-h]quinazolin-2-amine], for which the half-maximal inhibitory concentration (IC50) is not above 50 nM.

In turn, `Cn1nc2c(c1C1CC1)-c1nc(NC3CCN(S(C)(=O)=O)CC3)ncc1CC2` [Example 12, 9-Cyclopropyl-8-methyl-N-(1-(methylsulfonyl)piperidin-4-yl)-6,8-dihydro-5H-pyrazolo[3,4-h]quinazolin-2-amine] displayed an IC50 not above 50 nM.

In turn, `CC(C)c1c2c(nn1C)CCc1cnc(NC3CCN(S(C)(=O)=O)CC3)nc1-2` [Example 13, 9-Isopropyl-8-methyl-N-(1-(methylsulfonyl)piperidin-4-yl)-6,8-dihydro-5H-pyrazolo[3,4-h]quinazolin-2-amine] displayed an IC50 not above 50 nM.

`CS(=O)(=O)N1CCC(Nc2ncc3c(n2)-c2c(nn(C4CCOC4)c2C2CC2)CC3)CC1` (stereo not drawn) [Example 14, 9-Cyclopropyl-N-(1-(methylsulfonyl)piperidin-4-yl)-8-(tetrahydrofuran-3-yl)-6,8-dihydro-5H-pyrazolo[3,4-h]quinazolin-2-amine] showed an IC50 not above 50 nM.

On to `CS(=O)(=O)N1CCC(Nc2ncc3c(n2)-c2c(nn(CCO)c2C2CC2)CC3)CC1` [Example 15, 2-(9-Cyclopropyl-2-((1-(methylsulfonyl)piperidin-4-yl)amino)-5,6-dihydro-8H-pyrazolo[3,4-h]quinazolin-8-yl)ethan-1-ol], for which the IC50 was not above 50 nM.

Take `CS(=O)(=O)N1CCC(Nc2ncc3c(n2)-c2c(nn(C4CC4)c2C2CC2)CC3)CC1` [Example 16, 8,9-Dicyclopropyl-N-(1-(methylsulfonyl)piperidin-4-yl)-6,8-dihydro-5H-pyrazolo[3,4-h]quinazolin-2-amine]: the IC50 is not above 50 nM.

`Cc1nc2c(n1C)-c1nc(NC3CCN(S(C)(=O)=O)CC3)ncc1CC2` [Example 17, 1,2-Dimethyl-N-(1-(methylsulfonyl)piperidin-4-yl)-4,5-dihydro-1H-imidazo[4,5-h]quinazolin-8-amine] yielded an IC50 not above 50 nM.

For the compound `CC(C)c1nc2c(n1C)-c1nc(NC3CCN(S(C)(=O)=O)CC3)ncc1CC2` [Example 18, 2-Isopropyl-1-methyl-N-(1-(methylsulfonyl)piperidin-4-yl)-4,5-dihydro-1H-imidazo[4,5-h]quinazolin-8-amine], the IC50 was not above 50 nM.

The compound `Cc1nc2c(n1C1CC1)-c1nc(NC3CCN(S(C)(=O)=O)CC3)ncc1CC2` [Example 19, 1-Cyclopropyl-2-methyl-N-(1-(methylsulfonyl)piperidin-4-yl)-4,5-dihydro-1H-imidazo[4,5-h]quinazolin-8-amine] displayed an IC50 not above 50 nM.

Turning to `CS(=O)(=O)N1CCC(Nc2ncc3c(n2)-c2c(ncn2C2CC2)CC3)CC1` [Example 20, 1-Cyclopropyl-N-(1-(methylsulfonyl)piperidin-4-yl)-4,5-dihydro-1H-imidazo[4,5-h]quinazolin-8-amine], the IC50 is not above 50 nM.

The compound `CS(=O)(=O)N1CCC(Nc2ncc3c(n2)-c2c(nc(Br)n2C2CC2)CC3)CC1` [Example 21, 2-Bromo-1-cyclopropyl-N-(1-(methylsulfonyl)piperidin-4-yl)-4,5-dihydro-1H-imidazo[4,5-h]quinazolin-8-amine] yielded an IC50 not above 50 nM.

Compound `CS(=O)(=O)N1CCC(Nc2ncc3c(n2)-c2c(nc(-c4ccccc4)n2C2CC2)CC3)CC1` [Example 22, 1-Cyclopropyl-N-(1-(methylsulfonyl)piperidin-4-yl)-2-phenyl-4,5-dihydro-1H-imidazo[4,5-h]quinazolin-8-amine] gave an IC50 not above 50 nM.

As for `CS(=O)(=O)N1CCC(Nc2ncc3c(n2)-c2c(nc(-c4ccccc4F)n2C2CC2)CC3)CC1` [Example 23, 1-Cyclopropyl-2-(2-fluorophenyl)-N-(1-(methylsulfonyl)piperidin-4-yl)-4,5-dihydro-1H-imidazo[4,5-h]quinazolin-8-amine], the IC50 is not above 50 nM.

Take `Cc1nn(C)cc1-c1nc2c(n1C1CC1)-c1nc(NC3CCN(S(C)(=O)=O)CC3)ncc1CC2` [Example 24, 1-Cyclopropyl-2-(1,3-dimethyl-1H-pyrazol-4-yl)-N-(1-(methylsulfonyl)piperidin-4-yl)-4,5-dihydro-1H-imidazo[4,5-h]quinazolin-8-amine]: the IC50 was not above 50 nM.

Values taken from patent publication US11440914B2, “Tricyclic amine compounds as CDK2 inhibitors” (Incyte Corporation, priority 2019, dated 2022).
